Test system: recombinant NL4-3 virus (Renilla luciferase in nef, Gag P373S)
Assay: HIV cell culture assay (luciferase reporter, MT-2 cells)
Format: cell-based, HIV-1
Details: Renilla, NL43, MT-2 cells infected for 4-5 days with NLRluc recombinants; luciferase activity; serial dilutions of inhibitor
How it was run: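 MT-2 cells infected with recombinant NL4-3 carrying Renilla luciferase in place of part of nef and Gag P373S, virus made by 293T transfection. Infection ran 4-5 days with serial inhibitor dilutions. Antiviral activity read as luciferase activity (Dual Luciferase reagents mixed with lysis buffer).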

**Q.** How did the EC50 turn out when `CC1([C@@H]2CC[C@]3(NCCN4CCN(S(C)(=O)=O)CC4)CC[C@]4(C)[C@H](CC[C@@H]5[C@@]6(C)CC=C(c7ccc(C(=O)O)cc7)C(C)(C)[C@@H]6CC[C@]54C)[C@@H]23)CC1` [Example B56, 4-((1R,3aS,5aR,5bR,7aR,11aS,11bR,13aR,13bR)-5a,5b,8,8,11a-pentamethyl-1-(1-methylcyclopropyl)-3a-(2-(4-(methylsulfonyl)piperazin-1-yl)ethylamino)-2,3,3a,4,5,5a,5b,6,7,7a,8,11,11a,11b,12,13,13a,13b-octadecahydro-1H-cyclopenta[a]chrysen-9-yl)benzoic acid] was run?
**A.** 2.51 nM
